The values that follow come from ChEMBL document CHEMBL1201862, “PubChem BioAssay data set” (2004).

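Compound exposure: 48 hours, 5 concentrations, 96-well plates. At the GI50, growth is halved.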 Activity calls are given as the source filed them. Cut-off read from the data, not from the text of the source: active = GI50 up to about 1.1 µM and inactive = higher.

Test systems include SK-MEL-28; UACC-257; SN12C; SF-539; RXF 393; MDA-N; OVCAR-5; LOX IMVI; CAKI-1; PC-3; SNB-75; NCI-H522; A549; SR; EKVX; SF-268; U-251; T47D; MDA-MB-435; RPMI-8226.
Common to all, as to assay: growth of human tumour cells (NCI), 48 h

As to `COc1ccccc1Cn1c2c(c3c(C(=O)NCCN(C)C)c(O)ccc31)C(=O)c1ccccc1C2=O`, the GI50 was 1.71 µM (inactive) in the assay on SK-MEL-28; 1.79 µM (inactive) in the assay with UACC-257; 1.94 µM (inactive) in the assay with SN12C; 1.9 µM (inactive) in the assay with SF-539; 1.07 µM (active) in the assay with RXF 393; 1.4 µM (inactive) in the assay on MDA-N. Besides, the GI50 in the assay on OVCAR-5 is 1.94 µM (inactive); in the assay on LOX IMVI, 1.89 µM (inactive); with CAKI-1, 2.04 µM (inactive); in the assay on PC-3 it was 2.09 µM (inactive); in the assay on SNB-75, 1.55 µM (inactive); in the assay on NCI-H522, 1.69 µM (inactive). Further, the GI50 with A549 is 1.82 µM (inactive); in the assay on SR it was 0.291 µM (active); in the assay on EKVX, 1.82 µM (inactive); with SF-268 it was 1.68 µM (inactive); with U-251, 1.91 µM (inactive); in the assay on T47D it was 2.16 µM (inactive). Besides, the GI50 in the assay on MDA-MB-435 is 1.69 µM (inactive); with RPMI-8226 it was 0.78 µM (active).

For `CC(C)(C)OC(=O)NCC(c1c[nH]c2cc(Br)ccc12)c1c[nH]c2cc(Br)ccc12`, the GI50 was 29.2 µM (inactive) with SK-MEL-28; 19.9 µM (inactive) in the assay on UACC-257; 18.5 µM (inactive) in the assay with SN12C; 20.2 µM (inactive) in the assay on SF-539; 17.6 µM (inactive) in the assay on RXF 393; 18.5 µM (inactive) in the assay with MDA-N. The GI50 with OVCAR-5 was 15.5 µM (inactive); in the assay with LOX IMVI, 17.5 µM (inactive); in the assay with CAKI-1, 26.9 µM (inactive); in the assay with PC-3 it was 17.3 µM (inactive); in the assay with SNB-75 it was 21.9 µM (inactive); with NCI-H522 it was 17.3 µM (inactive). Besides, the GI50 in the assay with A549 was 20.1 µM (inactive); in the assay on SR, > 100 µM (inactive); in the assay on EKVX, 16.2 µM (inactive); with SF-268, 16.3 µM (inactive); in the assay with U-251, 17.3 µM (inactive); with T47D, 17.6 µM (inactive). Also, the GI50 in the assay on MDA-MB-435 is 16.8 µM (inactive); in the assay on RPMI-8226, 32.7 µM (inactive).

For the compound `O=C(NC/C(Cl)=C/Cl)Nc1cccc2c1CCCC2`, the GI50 with SK-MEL-28 is > 100 µM (inactive); in the assay with UACC-257, 58.9 µM (inactive); in the assay on SN12C, > 100 µM (inactive); in the assay with SF-539, > 100 µM (inactive); in the assay with RXF 393, > 100 µM (inactive); in the assay on MDA-N it was > 100 µM (inactive). Besides, the GI50 in the assay on OVCAR-5 was > 100 µM (inactive); in the assay on LOX IMVI it was > 100 µM (inactive); in the assay on CAKI-1, 86.9 µM (inactive); with PC-3 it was 74.5 µM (inactive); in the assay with SNB-75, > 100 µM (inactive); in the assay with NCI-H522 it was > 100 µM (inactive). The GI50 in the assay on A549 is > 100 µM (inactive); in the assay with SR, 35.9 µM (inactive); in the assay with EKVX, 82.8 µM (inactive); in the assay on SF-268, > 100 µM (inactive); with U-251 it was > 100 µM (inactive); with T47D, 97.9 µM (inactive). The GI50 in the assay with MDA-MB-435 is > 100 µM (inactive); with RPMI-8226, 49.8 µM (inactive).

As to `N#CC(C#N)=C1C(=Cc2ccc(OCCCCCCCCCCSSCCCCCCCCCCOc3ccc(C=C4C(=C(C#N)C#N)c5ccccc5C4=C(C#N)C#N)cc3)cc2)C(=C(C#N)C#N)c2ccccc21`, the GI50 in the assay with SK-MEL-28 is 21.6 µM (inactive); in the assay on UACC-257 it was 39.5 µM (inactive); in the assay with SF-539, 16.1 µM (inactive); with RXF 393, 22.6 µM (inactive); in the assay on MDA-N, 34.8 µM (inactive); in the assay with OVCAR-5 it was 20.8 µM (inactive). The GI50 with LOX IMVI was 18.5 µM (inactive); in the assay on CAKI-1 it was 24.7 µM (inactive); in the assay with PC-3, 20.8 µM (inactive); in the assay with SNB-75 it was 25.7 µM (inactive); in the assay with NCI-H522, 17.8 µM (inactive); in the assay on A549, 15.5 µM (inactive). Further, the GI50 in the assay on SR was 19.2 µM (inactive); with EKVX, 20.9 µM (inactive); with SF-268 it was 19.5 µM (inactive); in the assay on U-251, 19.5 µM (inactive); with T47D, 31.6 µM (inactive); in the assay on MDA-MB-435, 38.7 µM (inactive). Besides, the GI50 in the assay on RPMI-8226 was 39.2 µM (inactive).

For the compound `COC(OC)[C@@H]1OC[C@@H](O)[C@@H]1n1cnc2c(N)ncnc21`, the GI50 in the assay on SK-MEL-28, in the assay on UACC-257, in the assay with SN12C, in the assay with SF-539, in the assay on RXF 393 and in the assay with MDA-N was > 100 µM (inactive) in each case. In addition, the GI50 with OVCAR-5, in the assay on LOX IMVI, with CAKI-1, in the assay with PC-3, with SNB-75 and in the assay on NCI-H522 was > 100 µM (inactive) throughout. Moreover, the GI50 with SR, in the assay on EKVX, in the assay on SF-268, with U-251, in the assay with T47D and in the assay with MDA-MB-435 was > 100 µM (inactive) in each case. Further, in the assay on RPMI-8226, the GI50 is > 100 µM (inactive).

Take `CCCCC(=O)c1c(O)ccc2c(C)cc(=O)oc12`: the GI50 in the assay on SK-MEL-28 is > 100 µM (inactive); with UACC-257, > 100 µM (inactive); in the assay with SN12C, > 100 µM (inactive); in the assay on SF-539, > 100 µM (inactive); in the assay with RXF 393, 49.1 µM (inactive); in the assay with MDA-N, > 100 µM (inactive). Besides, the GI50 in the assay on OVCAR-5 was > 100 µM (inactive); in the assay on LOX IMVI it was 93.8 µM (inactive); with CAKI-1, 68.9 µM (inactive); with PC-3 it was > 100 µM (inactive); in the assay on SNB-75 it was > 100 µM (inactive); in the assay on NCI-H522, 58.2 µM (inactive). For the same compound, the GI50 in the assay on A549 was 73.3 µM (inactive); with SR, 40.7 µM (inactive); in the assay on EKVX it was 89.1 µM (inactive); in the assay with SF-268, > 100 µM (inactive); with U-251 it was > 100 µM (inactive); in the assay with T47D, 14.8 µM (inactive). The GI50 in the assay on MDA-MB-435 is > 100 µM (inactive); in the assay on RPMI-8226, 52 µM (inactive).

As to `COc1ccc(CCNCCCC2c3ccccc3-c3ccccc32)cc1OC`, the GI50 in the assay on SK-MEL-28 was 9.44 µM (inactive); in the assay on UACC-257 it was 14.3 µM (inactive); with SN12C, 15 µM (inactive); in the assay with SF-539 it was 16.3 µM (inactive); in the assay on RXF 393, 11.3 µM (inactive); in the assay on MDA-N it was 16.7 µM (inactive). The GI50 with OVCAR-5 is 19.2 µM (inactive); in the assay on LOX IMVI it was 14.2 µM (inactive); with CAKI-1 it was 18.4 µM (inactive); with PC-3, 16.3 µM (inactive); with SNB-75, 13.5 µM (inactive); in the assay on NCI-H522, 15.9 µM (inactive). Also, the GI50 was 16.1 µM (inactive) in the assay with A549; 8.22 µM (inactive) in the assay on SR; 16.3 µM (inactive) in the assay with EKVX; 15.1 µM (inactive) with SF-268; 12.9 µM (inactive) with U-251; 17.1 µM (inactive) with T47D. The results for the GI50 with MDA-MB-435 and with RPMI-8226 were 14.7 µM (inactive) and 6.3 µM (inactive), respectively.
